US9732051B2, “Isothiazoline compounds for combating invertebrate pests” (BASF SE, priority 2011, dated 2017)

Key:
Type in all cases: in vivo
[1] = test system: Dichromothrips corbetti; assay: Orchid thrips floral-immersion test; details: 96 h, after 4 days, in comparison with untreated controls
Method: B.6 Orchid Thrips (Dichromothrips corbetti)
Dichromothrips corbetti adults used for bioassay were obtained from a colony maintained continuously under laboratory conditions. For testing purposes, the test compound was diluted to a concentration of 500 ppm (wt compound: vol diluent) in a 1:1 mixture of acetone:water (vol:vol), plus 0.01% vol/vol Kinetic® surfactant.
Thrips potency of each compound was evaluated by using a floral-immersion technique. Plastic petri dishes were used as test arenas. All petals of individual, intact orchid flowers were dipped into treatment solution and allowed to dry. Treated flowers were placed into individual petri dishes along with 10-15 adult thrips. The petri dishes were then covered with lids. All test arenas were held under continuous light and a temperature of about 28° C. for duration of the assay. After 4 days, the numbers of live thrips were counted on each flower, and along inner walls of each petri dish. The level of thrips mortality was extrapolated from pre-treatment thrips numbers.

[2] = test system: Plutella xylostella; assay: Diamond back moth leaf dip test; details: foliar, recorded 24, 72 and 120 hours after treatment, in comparison with untreated controls
Method: B.3 Diamond Back Moth (Plutella xylostella)
Leaves of Chinese cabbage were dipped in test solution and air-dried. Treated leaves were placed in petri dished lined with moist filter paper. Mortality was recorded 24, 72, and 120 hours after treatment.

[3] = test system: Myzus persicae; assay: Green peach aphid systemic test, artificial diet in 96-well plates; details: 72 h, 3 days, in comparison with untreated controls
Excerpt: B.4 Green Peach Aphid (Myzus persicae)
For evaluating control of green peach aphid (Myzus persicae) through systemic means the test unit consisted of 96-well-microtiter plates containing liquid artificial diet under an artificial membrane.
The compounds were formulated using a solution containing 75% v/v water and 25% v/v DMSO. Different concentrations of formulated compounds were pipetted into the aphid diet, using a custom built pipetter, at two replications.
After application, 5-8 adult aphids were placed on the artificial membrane inside the microtiter plate wells. The aphids were then allowed to suck on the treated aphid diet and incubated at about 23±1° C. and about 50±5% relative humidity for 3 days. Aphid mortality and fecundity was then visually assessed.

[4] = test system: Megoura viciae; assay: Vetch aphid leaf disk test in 24-well plates; details: foliar, 120 h, 5 days, in comparison with untreated controls
Method: B.10 Vetch Aphid (Megoura viciae)
For evaluating control of vetch aphid (Megoura viciae) through contact or systemic means the test unit consisted of 24-well-microtiter plates containing broad bean leaf disks.
The compounds were formulated using a solution containing 75% v/v water and 25% v/v DMSO. Different concentrations of formulated compounds were sprayed onto the leaf disks at 2.5 μl, using a custom built micro atomizer, at two replications.
After application, the leaf disks were air-dried and 5-8 adult aphids placed on the leaf disks inside the microtiter plate wells. The aphids were then allowed to suck on the treated leaf disks and incubated at about 23±1° C. and about 50±5% relative humidity for 5 days. Aphid mortality and fecundity was then visually assessed.

[5] = test system: Ceratitis capitata; assay: Mediterranean fruitfly microtiter plate diet test, egg and larval mortality; details: 120 h, 5 days, in comparison with untreated controls
Method: B.5 Mediterranean Fruitfly (Ceratitis capitata)
For evaluating control of Mediterranean fruitfly (Ceratitis capitata) the test unit consisted of microtiter plates containing an insect diet and 50-80 C. capitata eggs.
(§1) The compounds were formulated using a solution containing 75% v/v water and 25% v/v DMSO. Different concentrations of formulated compounds were sprayed onto the insect diet at 5 μl, using a custom built micro atomizer, at two replications.
(§2) After application, microtiter plates were incubated at about 28±1° C. and about 80±5% relative humidity for 5 days. Egg and larval mortality was then visually assessed.

[6] = test system: Anthonomus grandis; assay: Boll weevil microtiter plate diet test, egg and larval mortality; details: 120 h, 5 days, in comparison with untreated controls
Method: B.12 Boll Weevil (Anthonomus grandis)
For evaluating control of boll weevil (Anthonomusgrandis) the test unit consisted of 24-well-microtiter plates containing an insect diet and 20-30 A. grandis eggs.
The compounds were formulated using a solution containing 75% v/v water and 25% v/v DMSO. Different concentrations of formulated compounds were sprayed onto the insect diet at 20 μl, using a custom built micro atomizer, at two replications.
After application, microtiter plates were incubated at about 23±1° C. and about 50±5% relative humidity for 5 days. Egg and larval mortality was then visually assessed.

[7] = test system: Spodoptera eridania; assay: Southern armyworm spray test on lima bean plants; details: 96 h, 4 days after treatment, in comparison with untreated controls
Method: B.9 Southern Armyworm (Spodoptera eridania)
(§3) The active compounds were formulated in cyclohexanone as a 10,000 ppm solution supplied in tubes. The tubes were inserted into an automated electrostatic sprayer equipped with an atomizing nozzle and they served as stock solutions for which lower dilutions were made in 50% acetone:50% water (v/v). A nonionic surfactant (Kinetic®) was included in the solution at a volume of 0.01% (v/v).
Lima bean plants (variety Sieva) were grown 2 plants to a pot and selected for treatment at the 1st true leaf stage. Test solutions were sprayed onto the foliage by an automated electrostatic plant sprayer equipped with an atomizing spray nozzle. The plants were dried in the sprayer fume hood and then removed from the sprayer. Each pot was placed into perforated plastic bags with a zip closure. About 10 to 11 armyworm larvae were placed into the bag and the bags zipped closed. Test plants were maintained in a growth room at about 25° C. and about 20-40% relative humidity for 4 days, avoiding direct exposure to fluorescent light (24 hour photoperiod) to prevent trapping of heat inside the bags. Mortality and reduced feeding were assessed 4 days after treatment, compared to untreated control plants.

[8] = test system: Heliothis virescens; assay: Tobacco budworm microtiter plate diet test, egg and larval mortality; details: 120 h, 5 days, in comparison with untreated controls
Method: B.11 Tobacco Budworm (Heliothis virescens) I
as §1, with “For evaluating control of tobacco budworm (Heliothis virescens) the test unit consisted of 96-well-microtiter plates containing an insect diet and 15-25 H. virescens eggs. The” for “The”, “at 10” for “at 5”
as §2

[9] = test system: Leptinotarsa decemlineata; assay: Colorado potato beetle spray test on eggplant foliage; details: foliar, 96 h, 4 days after treatment, in comparison with untreated controls
Method: B.13 Colorado Potato Beetle (Leptinotarsa decemlineata)
as §3
Eggplants were grown 2 plants to a pot and were selected for treatment at the 1st true leaf stage. Test solutions were sprayed onto the foliage by an automated electrostatic plant sprayer equipped with an atomizing spray nozzle. The plants were dried in the sprayer fume hood and then removed from the sprayer. The treated foliage was then cut and removed from the pot and placed in a 5-inch Petri dish lined with moistened filter paper. Five beetle larvae were introduced into each Petri dish and the dish was covered by a Petri dish lid. Petri dishes were maintained in a growth room at 25° C. and 20-40% relative humidity for 4 days, avoiding direct exposure to fluorescent light (24 hour photoperiod) to prevent trapping of heat inside the dishes. Mortality and reduced feeding were assessed 4 days after treatment, compared to untreated control plants.

[10] = test system: Aphis craccivora; assay: Cowpea aphid spray test on potted cowpea plants; details: assessed after 24, 72 and 120 hours, in comparison with untreated controls
Method: B.2 Cowpea Aphid (Aphis craccivora)
Potted cowpea plants colonized with approximately 100-150 aphids of various stages were sprayed after the pest population had been recorded. Population reduction was assessed after 24, 72, and 120 hours.

[11] = test system: Tetranychus kanzawai; assay: Red spider mite spray test on cowpea beans; details: after 72 h, in comparison with untreated controls
Method: B.14 Red Spider Mite (Tetranychus kanzawai)
The active compound was dissolved at the desired concentration in a mixture of 1:1 (v/v) distilled water:acetone. A surfactant (Alkamuls® EL 620) was added at the rate of 0.1% (v/v).
Potted cowpea beans of 7-10 days of age were cleaned with tap water and sprayed with 5 ml of the test solution using air driven hand atomizer. The treated plants were allowed to air dry and afterwards inculated with 20 or more mites by clipping a cassava leaf section with known mite population. Treated plants were placed inside a holding room at about 25-27° C. and about 50-60% relatice humidity.
Mortality was determined by counting the live mites 72 HAT. Percent mortality was assessed after 72 h.

[12] = test system: Nephotettix virescens; assay: Rice green leafhopper spray test on rice seedlings; details: after 72 hours, in comparison with untreated controls
Method: B.7 Rice Green Leafhopper (Nephotettix virescens)
Rice seedlings were cleaned and washed 24 hours before spraying. The active compounds were formulated in 50:50 acetone:water (vol:vol), and 0.1% vol/vol surfactant (EL 620) was added. Potted rice seedlings were sprayed with 5 ml test solution, air dried, placed in cages and inoculated with 10 adults. Treated rice plants were kept at about 28-29° C. and relative humidity of about 50-60%. Percent mortality was recorded after 72 hours.

CCNC(=O)N/N=C/c1ccc(C2=NSC(c3cc(Cl)cc(Cl)c3)(C(F)(F)F)C2)cc1C (stereo not drawn) [Compound 1-5, 1-[(E)-[4-[5-(3,5-dichlorophenyl)-5-(trifluoromethyl)-4H-isothiazol-3-yl]-2-methyl-phenyl]methyleneamino]-3-ethyl-urea]
≥ 75%: mortality at 500 ppm [1] | mortality at 500 ppm [2] | mortality at 2500 ppm [3] | mortality at 2500 ppm [4] | mortality at 2500 ppm [5] | mortality at 2500 ppm [6] | mortality at 1 ppm [7] | mortality at 2500 ppm [8]

Cc1cc(C2=NSC(c3cc(Cl)cc(Cl)c3)(C(F)(F)F)C2)ccc1C(=O)NCC(=O)NCC(F)(F)F (stereo not drawn) [Compound 2-1, 4-[5-(3,5-Dichlorophenyl)-5-trifluoromethyl-4H-isothiazol-3-yl]-2-methyl-N-[2-oxo-2-(2,2,2-trifluoroethylamino)ethyl]benzamide]
≥ 75%: mortality at 500 ppm [1] | mortality at 500 ppm [2] | mortality at 2500 ppm [3] | mortality at 1 ppm [9] | mortality at 2500 ppm [4] | mortality at 500 ppm [10] | mortality at 2500 ppm [5] | mortality at 2500 ppm [6] | mortality at 500 ppm [11] | mortality at 1 ppm [7] | mortality at 500 ppm [12] | mortality at 2500 ppm [8]

CCSCC(=O)N(CC)Cc1ccc(C2=NSC(c3cc(Cl)cc(Cl)c3)(C(F)(F)F)C2)cc1C (stereo not drawn) [Compound 3-3, N-[[4-[5-(3,5-Dichlorophenyl)-5-(trifluoromethyl)-4H-isothiazol-3-yl]-2-methyl-phenyl]methyl]-N-ethyl-2-ethylsulfanyl-acetamide]
≥ 75%: mortality at 500 ppm [1] | mortality at 500 ppm [2] | mortality at 2500 ppm [3] | mortality at 2500 ppm [5] | mortality at 2500 ppm [6] | mortality at 1 ppm [7] | mortality at 500 ppm [12] | mortality at 2500 ppm [8]

Cc1cc(C2=NSC(c3cc(Cl)cc(Cl)c3)(C(F)(F)F)C2F)ccc1C(=O)NCC(=O)NCC(F)(F)F (stereo not drawn) [Compound 5-1, 4-[5-(3,5-dichlorophenyl)-4-fluoro-5-(trifluoromethyl)-4H-isothiazol-3-yl]-2-methyl-N-[2-oxo-2-(2,2,2-trifluoroethylamino)ethyl]benzamide]
≥ 75%: mortality at 500 ppm [1] | mortality at 500 ppm [2] | mortality at 2500 ppm [3] | mortality at 2500 ppm [4] | mortality at 2500 ppm [5] | mortality at 2500 ppm [6] | mortality at 500 ppm [11] | mortality at 2500 ppm [8]
